# From patent US4166113A, “Cardiotonic agent” (University of Hawaii, priority 1978, dated 1979)
# Key:
# [1] = Solubility in deionized water; format: physicochemical
# Isoelectric focusing = format: physicochemical
# Excerpt: For the purpose of obtaining electrophoretic and amino acid analysis the anthopleurin-B obtained in Example 1, below, was rechromatographed on CM Sephadex C-25, Sephadex G-50 and G-10 according to the process set forth in Example 1, Steps c, d and e, respectively. The doubly purified material was subject to electrophoretic analysis using commercially available pre-cast 12% acrylamide gels and matched buffer systems obtained from Bio.Rad Laboratories, 32nd and Griffin, Richmond, California.
# Isoelectric focusing gave the isoelectric point at a pH=9.05. Disc gel electrophoresis with 12% polyacrylamide gel at pH 3.6 gave an Rf value of 0.64 versus methyl green tracking dye. […] Sodium dodecyl sulfate (SDS) disc gel electrophoresis using a 10% gel indicated a m.w. of about 5,200 after incubation with dithioerythritol, using RNase A and pancreatic trypsin inhibitor (PTI) for comparison. The molecular weight is so low that these values are only approximate. […] Acid hydrolysis indicated the approximate following amino acid composition: (Asp or Asn)5, Thr1 Ser4, (Glu or Gln)1, Pro5, Gly7, Ala2, (Cys/2)6 Val1, Ile2, Leu2, Tyr1, Phe1, Lys3, His2, Arg2, Trp2.
# Stability (pH, storage) = format: physicochemical
# isolated rat atria = assay: Bioassay for positive inotropic effect on isolated rat atria; format: cell-based
# Excerpt: The sea anemones are homogenized and extracted with water or with a solution of water and a water miscible organic solvent. The crude extract, containing anthopleurin-B, is subjected to gel filtration to give a forty-fold increase in purity of anthopleurin-B. Alternatively, semipermeable membranes may be used to accomplish the results obtained by gel filtration. Cation exchange chromatography provides an excellent separation of anthopleurin-B in a purity of about 30-40% depending on the particular collection of anemones. […] To obtain analytically pure salt-free material the above material is further purified by gel filtration, cation-exchange chromatography and gel adsorption chromatography. All the separation procedures in the present invention are monitored by bioassay using the isolated rat atria for determination of positive inotropic effect using the procedure described in the section headed Bioassay.
# Bioassays of the solutions containing anthopleurin-B are performed on isolated atria of rat hearts. […]
# The spontaneously beating atrial preparation is connected by a thin silk thread to a force-displacement transducer (Grass Model FT.03), and the contractile movements are recorded on a six-channel polygraph Grass Model 7. […]
substance,measurement,setting,value
anthopleurin-B [AP-B],solubility,[1],very soluble
same,isoelectric point,Isoelectric focusing,9.05 pH
same,storage stability,"Stability (pH, storage); -20° C. for a year, as lyophilized fraction C or fraction G",no signs of deterioration
same,stability versus pH,"Stability (pH, storage); neutral and lower pH values",relatively stable
same,stability of dry form,"Stability (pH, storage); sterile powdered lyophilized, room temperature",stable at room temperature
same,potency in positive inotropic effect relative to ouabain,isolated rat atria; as potent as ouabain,200-1000 x
same,chronotropic effect,"isolated rat atria; isolated rat atria, beat rate",does not show any chronotropic effect
